# Assay results reported in patent publication US20170190671A1, “BIS(ARYL)CATECHOL DERIVATIVES AS HERBICIDES” (E I DU PONT DE NEMOURS AND COMPANY, priority 2014, published 2017).
# Columns and labels:
# [1] = tested on: corn (Zea mays); experiment: Test C preemergence; assay type: in vivo; settings: Zea mays, pre-emergence, 336 h; Preemergence, 16 g ai/ha; scale 0 to 100
# Outline: (§1)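 Steps: plant seeds in loam-sand soil and treat preemergence, or grow plants in peat-based medium to 2-18 cm and spray; compound formulated in non-phytotoxic solvent/surfactant; hold in greenhouse 13-15 days; score visually versus controls from 0 (no effect) to 100 (complete control).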
# [2] = tested on: giant foxtail (Setaria faberii); experiment: Test C preemergence; assay type: in vivo; settings: Setaria faberi, pre-emergence, 336 h, scale 0 to 100, read-out: Plant response rating, Foxtail, Giant
# Outline: as §1
# [3] = tested on: blackgrass (Alopecurus myosuroides); experiment: Test C preemergence; assay type: in vivo; settings: Alopecurus myosuroides, pre-emergence, 336 h, scale 0 to 100, read-out: Plant response rating, Blackgrass
# Outline: as §1
# [4] = tested on: johnsongrass (Sorghum halepense); experiment: Test C preemergence; assay type: in vivo; settings: Sorghum halepense, pre-emergence, 336 h, scale 0 to 100, read-out: Plant response rating, Johnsongrass
# Outline: as §1
# [5] = tested on: oilseed rape (Brassica napus); experiment: Test C preemergence; assay type: in vivo; settings: Brassica napus, pre-emergence, scale 0 to 100, read-out: Plant response rating, Oilseed Rape
# Outline: as §1
# [6] = tested on: waterhemp (common waterhemp, Amaranthus rudis); experiment: Test C preemergence; assay type: in vivo; settings: Amaranthus tuberculatus, pre-emergence, scale 0 to 100, read-out: Plant response rating, Waterhemp
# Outline: as §1
# [7] = tested on: ragweed (common ragweed, Ambrosia elatior); experiment: Test C postemergence; assay type: in vivo; settings: Ambrosia artemisiifolia, post-emergence, 336 h, Postemergence, scale 0 to 100, read-out: Plant response rating, Ragweed
# [8] = tested on: soybean (Glycine max); experiment: Test C postemergence; assay type: in vivo; settings: Glycine max, post-emergence, Postemergence, scale 0 to 100, read-out: Plant response rating, Soybean
# [9] = tested on: lambsquarters (Chenopodium album); experiment: Test C postemergence; assay type: in vivo; settings: Chenopodium album, post-emergence, 336 h, Postemergence, scale 0 to 100, read-out: Plant response rating, Lambsquarters
# [10] = tested on: galium (catchweed bedstraw, Galium aparine); experiment: Test C postemergence; assay type: in vivo; settings: Galium, post-emergence, 336 h, Postemergence, scale 0 to 100, read-out: Plant response rating, Galium
# [11] = tested on: corn (Zea mays); experiment: Test C postemergence; assay type: in vivo; settings: Zea mays, post-emergence, 336 h, Postemergence, scale 0 to 100
# [12] = tested on: waterhemp (common waterhemp, Amaranthus rudis); experiment: Test C postemergence; assay type: in vivo; settings: Amaranthus tuberculatus, post-emergence, Postemergence, scale 0 to 100, read-out: Plant response rating, Waterhemp
compound,measurement,setting,value
"N#Cc1cccc(Oc2ncc(C(F)(F)F)cn2)c1Oc1ncc(Cl)cn1 [Compound 39, 2-[(5-chloro-2-pyrimidinyl)oxy]-3-[[5-(trifluoromethyl)-2-pyrimidinyl]oxy]-benzonitrile]","Corn plant response rating (crop injury, 0 = no effect, 100 = complete kill) at 16 g/ha",[1],5%
same,pest or weed control at 31 g/ha,"[2]; 31 g ai/ha, preemergence",95%
same,pest or weed control at 62 g/ha,"[2]; 62 g ai/ha, preemergence",100%
same,pest or weed control at 125 g/ha,"[2]; 125 g ai/ha, preemergence",100%
same,pest or weed control at 16 g/ha,"[2]; Preemergence, 16 g ai/ha",55%
same,pest or weed control at 31 g/ha,"[3]; 31 g ai/ha, preemergence",50%
same,pest or weed control at 62 g/ha,"[3]; 62 g ai/ha, preemergence",90%
same,pest or weed control at 125 g/ha,"[3]; 125 g ai/ha, preemergence",90%
same,pest or weed control at 16 g/ha,"[3]; Preemergence, 16 g ai/ha",0%
same,pest or weed control at 31 g/ha,"[4]; 31 g ai/ha, preemergence",65%
same,pest or weed control at 62 g/ha,"[4]; 62 g ai/ha, preemergence",85%
same,pest or weed control at 125 g/ha,"[4]; 125 g ai/ha, preemergence",100%
same,pest or weed control at 16 g/ha,"[4]; Preemergence, 16 g ai/ha",25%
same,plant injury at 31 g/ha,"[5]; 31 g ai/ha, preemergence",90%
same,plant injury at 62 g/ha,"[5]; 62 g ai/ha, preemergence",100%
same,plant injury at 125 g/ha,"[5]; 125 g ai/ha, preemergence",100%
same,plant injury at 16 g/ha,"[5]; Preemergence, 16 g ai/ha",80%
same,pest or weed control at 31 g/ha,"[6]; 31 g ai/ha, preemergence",100%
same,pest or weed control at 62 g/ha,"[6]; 62 g ai/ha, preemergence",100%
same,pest or weed control at 125 g/ha,"[6]; 125 g ai/ha, preemergence",100%
same,pest or weed control at 16 g/ha,"[6]; Preemergence, 16 g ai/ha",100%
same,pest or weed control at 31 g/ha,[7]; 31 g ai/ha,65%
same,pest or weed control at 62 g/ha,[7]; 62 g ai/ha,60%
same,pest or weed control at 125 g/ha,[7]; 125 g ai/ha,85%
same,plant injury at 31 g/ha,[8]; 31 g ai/ha,60%
same,plant injury at 62 g/ha,[8]; 62 g ai/ha,95%
same,plant injury at 125 g/ha,[8]; 125 g ai/ha,70%
same,pest or weed control at 16 g/ha,[9]; 16 g ai/ha,75%
same,pest or weed control at 31 g/ha,[9]; 31 g ai/ha,70%
same,pest or weed control at 62 g/ha,[9]; 62 g ai/ha,80%
same,pest or weed control at 125 g/ha,[9]; 125 g ai/ha,85%
same,pest or weed control at 16 g/ha,[10]; 16 g ai/ha,60%
same,pest or weed control at 31 g/ha,[10]; 31 g ai/ha,80%
same,pest or weed control at 62 g/ha,[10]; 62 g ai/ha,80%
same,pest or weed control at 125 g/ha,[10]; 125 g ai/ha,90%
same,"Corn plant response rating (crop injury, 0 = no effect, 100 = complete kill) at 16 g/ha",[11]; 16 g ai/ha,5%
same,"Corn plant response rating (crop injury, 0 = no effect, 100 = complete kill) at 31 g/ha",[11]; 31 g ai/ha,10%
same,"Corn plant response rating (crop injury, 0 = no effect, 100 = complete kill) at 62 g/ha",[11]; 62 g ai/ha,10%
same,"Corn plant response rating (crop injury, 0 = no effect, 100 = complete kill) at 125 g/ha",[11]; 125 g ai/ha,20%
same,pest or weed control at 31 g/ha,[12]; 31 g ai/ha,75%
same,pest or weed control at 62 g/ha,[12]; 62 g ai/ha,85%
same,pest or weed control at 125 g/ha,[12]; 125 g ai/ha,95%
same,melting point,,109 to 112 °C
